Assay results published in patent US8084479B2, “Thiazole compounds and methods of use” (Amgen Inc., priority 2006, dated 2011).

Molecular target: PKBα (Homo sapiens, UniProt P31749)
Experiment: PKB kinase assay (P33-labeled ATP, peptide substrate, filter plate)
Format: biochemical
Conditions: PKBα enzyme (full length or kinase domain with pleckstrin domain deleted)
Excerpt: The kinase assay for evaluating PKB activity comprises active PKB enzymes, a PKB specific substrate, and P^33-labeled ATP. […] The phosphorylated substrate was captured by a phosphocellulose membrane filter plate (MLLIPORE) and measured by a Wallac Microbeta liquid scintillation counter (Perkin Elmer).

PKBα, sequence (P31749 118-480 limits assumed): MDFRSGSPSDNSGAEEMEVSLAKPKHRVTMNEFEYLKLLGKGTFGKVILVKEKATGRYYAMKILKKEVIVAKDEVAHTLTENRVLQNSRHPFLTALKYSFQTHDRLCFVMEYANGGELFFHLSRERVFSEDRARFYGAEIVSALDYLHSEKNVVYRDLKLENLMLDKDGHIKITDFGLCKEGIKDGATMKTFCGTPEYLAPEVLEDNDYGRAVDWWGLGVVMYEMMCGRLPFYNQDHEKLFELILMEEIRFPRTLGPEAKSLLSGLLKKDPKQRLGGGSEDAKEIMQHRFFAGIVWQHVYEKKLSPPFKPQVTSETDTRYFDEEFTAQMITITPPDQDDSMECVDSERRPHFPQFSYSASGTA

Row | SMILES | IC50 [nM]
1 | N[C@H](CNc1ncc(-c2ccc3c(c2)CC(=O)N3)s1)Cc1ccc(Cl)s1 [Example 212, 5-(2-((S)-2-amino-3-(5-chlorothiophen-2-yl)propylamino)thiazol-5-yl)indolin-2-one] | 50 to 1000
2 | N[C@H](CNc1ncc(-c2ccc3[nH]c(=O)oc3c2)s1)Cc1ccc(Cl)s1 [Example 213, 6-(2-((S)-2-amino-3-(5-chlorothiophen-2-yl)propylamino)thiazol-5-yl)benzo[d]oxazol-2(3H)-one] | 50 to 1000
3 | N[C@H](CNc1ncc(-c2cc3c(cc2F)NC(=O)C3)s1)Cc1ccc(C(F)(F)F)cc1 [Example 214, 5-(2-((S)-2-amino-3-(4-(trifluoromethyl)phenyl)propylamino)thiazol-5-yl)-6-fluoroindolin-2-one] | < 50
4 | N[C@H](CNc1ncc(-c2cc3c(cc2F)NC(=O)C3)s1)Cc1ccc(C(F)(F)F)nc1 [Example 215, 5-(2-((S)-2-amino-3-(6-(trifluoromethyl)pyridin-3-yl)propylamino)thiazol-5-yl)-6-fluoroindolin-2-one] | 50 to 1000
5 | NC(CNc1ncc(-c2ccc3[nH]c(=O)oc3c2)s1)Cc1ccc(O)c(F)c1 (stereo not drawn) [Example 216, 6-(2-(2-Amino-3-(3-fluoro-4-hydroxyphenyl)propylamino)thiazol-5-yl)benzo[d]oxazol-2(3H)-one] | 50 to 1000
6 | NC(CNc1ncc(-c2ccc3c(c2)CC(=O)N3)s1)Cc1ccc(O)c(F)c1 (stereo not drawn) [Example 217, 5-(2-(2-Amino-3-(3-fluoro-4-hydroxyphenyl)propylamino)thiazol-5-yl)indolin-2-one] | 50 to 1000
7 | NC(CNc1ncc(-c2ccc3cnccc3c2)s1)Cc1ccc(O)c(F)c1 (stereo not drawn) [Example 218, 4-(2-Amino-3-(5-(isoquinolin-6-yl)thiazol-2-ylamino)propyl)-2-fluorophenol] | < 50
8 | N[C@H](CNc1ncc(-c2cc3oc(=O)[nH]c3cc2F)s1)Cc1ccc(C(F)(F)F)nc1 [Example 219, 6-(2-((S)-2-amino-3-(6-(trifluoromethyl)pyridin-3-yl)propylamino)thiazol-5-yl)-5-fluorobenzo[d]oxazol-2(3H)-one] | 50 to 1000
9 | N[C@H](CNc1ncc(-c2cc(F)c3c(c2)CC(=O)N3)s1)Cc1ccc(C(F)(F)F)cc1 [Example 220, 5-(2-((S)-2-amino-3-(4-(trifluoromethyl)phenyl)propylamino)thiazol-5-yl)-7-fluoroindolin-2-one] | < 50
10 | N[C@H](CNc1ncc(-c2cc(F)c3c(c2)CC(=O)N3)s1)Cc1ccc(C(F)(F)F)nc1 [Example 221, 5-(2-((S)-2-amino-3-(6-(trifluoromethyl)pyridin-3-yl)propylamino)thiazol-5-yl)-7-fluoroindolin-2-one] | < 50

The next lines start with the values.

Row | IC50 [nM] | SMILES
11 | 50 to 1000 | C[C@@H](c1ccc(C(F)(F)F)cc1)[C@H](N)CNc1ncc(-c2cc(F)c3c(c2)CC(=O)N3)s1 [Example 222, 5-(2-((2S,3S)-2-amino-3-(4-(trifluoromethyl)phenyl)butylamino)thiazol-5-yl)-7-fluoroindolin-2-one]
12 | 1000 to 10000 | N[C@H](CNc1ncc(-c2ccc3cnccc3c2)s1)Cc1ccc(NC(=O)OCc2ccccc2)cc1 [Example 223, Benzyl 4-((S)-2-amino-3-(5-(isoquinolin-6-yl)thiazol-2-ylamino)propyl)phenylcarbamate]
13 | < 50 | N[C@H](CNc1ncc(-c2ccc3c(c2F)CC(=O)N3)s1)Cc1ccc(C(F)(F)F)cc1 [Example 224, 5-(2-((S)-2-amino-3-(4-(trifluoromethyl)phenyl)propylamino)thiazol-5-yl)-4-fluoroindolin-2-one]
14 | < 50 | C[C@@H](c1ccc(C(F)(F)F)cc1)[C@H](N)CNc1ncc(-c2ccc3c(c2F)CC(=O)N3)s1 [Example 225, 5-(2-((2S,3S)-2-amino-3-(4-(trifluoromethyl)phenyl)butylamino)thiazol-5-yl)-4-fluoroindolin-2-one]
15 | < 50 | N[C@H](CNc1ncc(-c2cnc3c(c2)CC(=O)N3)s1)Cc1ccc(C(F)(F)F)cc1 [Example 226, 5-(2-((S)-2-amino-3-(4-(trifluoromethyl)phenyl)propylamino)thiazol-5-yl)-1H-pyrrolo[2,3-b]pyridin-2(3H)-one]
